How the values were obtained:
[1] = Leung and Baillie 1986; cited from earlier work
[2] = tested on: adults with major depressive disorder (MDD) who are at imminent risk of suicide; experiment: MADRS item 10 (suicidal thoughts), Phase 2 Part 1; format: in vivo, human; conditions: for MADRS item 10 (suicidality) score: 24 hours post-administration, baseline 5 units; for MADRS Item 10 mean score: baseline 5.2; for MADRS Suicide Item-10 response rate: summary through Day 29/30
Excerpt: The Montgomery-Åsberg Depression Rating Scale (MADRS) is a diagnostic questionnaire that can be used to measure the severity of a depressive episode in a subject. In some embodiments, the MADRS can be used to measure suicidal ideation. For example, the MADRS includes 10 items directed to the following: 1) apparent sadness (e.g., representing despondency, gloom and despair that is more than just ordinary transient low spirits that is reflected in speech, facial expression, and posture); 2) reported sadness (e.g., representing reports of depressed mood, regardless of whether it is reflected in appearance or not and can include low spirits, despondency or the feeling of being beyond help and without hope); 3) inner tension (e.g., representing feelings of ill-defined discomfort, edginess, inner turmoil, mental tension mounting to either panic, dread or anguish); 4) reduced sleep (e.g., representing the experience of reduced duration or depth of sleep compared to the subject's own normal pattern when well); 5) reduced appetite (e.g., representing the feeling of a loss of appetite compared with when-well); 6) concentration difficulties (e.g., representing difficulties in collecting one's thoughts mounting to an incapacitating lack of concentration); 7) lassitude (e.g., representing difficulty in getting started or slowness in initiating and performing everyday activities); 8) inability to feel (e.g., representing the subjective experience of reduced interest in the surroundings, or activities that normally give pleasure, and the ability to react with adequate emotion to circumstances or people is reduced); 9) pessimistic thoughts (e.g., representing thoughts of guilt, inferiority, self-reproach, sinfulness, remorse and ruin); and 10) suicidal thoughts (e.g., representing the feeling that life is not worth living, that a natural death would be welcome, suicidal thoughts, and preparations for suicide). Each item is rated from 0 units to 6 units, with 0 reflecting that the subject is not at all as described by the item and 6 reflecting that the subject is extremely like what is described by the item. […] As another example, for suicidal thoughts, a score of 0 units can indicate that the subject enjoys life or takes it as it comes; a score of 2 units can indicate that the subject is weary of life and may have fleeting suicidal thoughts; a score of 4 units can indicate that the subject feels he or she would probably be better off dead (e.g., suicidal thoughts are common, and suicide is considered as a possible solution, but without specific plans or intention); and a score of 6 units can indicate that the subject has explicit plans for suicide when there is an opportunity (e.g., the subject has made active preparations for suicide). Thus, the total score, after summation of each score for each item, is on a scale of 0 units to 60 units.
In some embodiments, item 10, e.g., suicidal thoughts, of the MADRS can be used to measure suicidal ideation.
The secondary endpoints are the change from baseline at 24 hours, as well as at Day 16, in the following: • (1) S-STS total score • (2) MADRS Total at Day 16 (only) • (3) Clinical Global Impression (CGI) of Severity for SI/B (CGIS-SI/B) and Change in SI/B (CGIC-SI/B) • (4) Patient Global Impression (PGI) of Severity for SI/B (PGIS-SI/B) and Change in SI/B (PGIC-SI/B • (5) S-STS Clinician-Rated Global Severity of Suicidal Impulses, Thoughts, and Behaviors • (6) S-STS Clinician judgment of subject's risk of a suicide attempt or death by suicide at this time • (7) S-STS Clinician judgment of subject's likelihood (risk) of making a suicide attempt or of dying by suicide in the next 7 days • (8) S-STS Subject-rated global severity of suicidal impulses, thoughts, and behavior • (9) S-STS Subject-rated treatment needed score • (10) MADRS item 10 response rate (response ≤3 units) • (11) MADRS Total response (total score ≥50% reduction from baseline) • (12) MADRS Total remission (total score ≤12 units) […]

[3] = tested on: adults with major depressive disorder (MDD) who are at imminent risk of suicide; experiment: MOAA/S sedation, Phase 2 Part 1
[4] = Hemodynamic effects (blood pressure), Phase 2 Part 1; format: in vivo, human; conditions: for Diastolic BP: baseline 79.0; for Systolic BP: baseline 121
Excerpt: The study schedule is identical for Parts 1 and 2. After admission to the emergency room or hospital, each subject will participate in a 1 to 2 day screening phase, a 16-day treatment phase including SOC during which study drug will be administered 2 times per week, for a total of 5 doses across the 16-day treatment period and a 2-week safety follow-up phase for a total of up to 5 weeks of study participation. Subjects will be treated as inpatients for approximately 7 days (including screening), and assuming the subject meets readiness for discharge criteria, will be discharged on Day 6 to continue the trial as outpatients, provided it is clinically appropriate to do so. Subjects will return to the clinic to receive study drug and to undergo study assessments 2 times per week until Day 16. Subjects will be evaluated for efficacy using multiple psychometric scales and for safety using clinical laboratory assessments, electrocardiograms (ECGs), vital signs, and physical examinations. After the last dose of study drug, subjects will continue to be monitored for safety for 2 weeks, including 4 in-person safety follow-up visits on Days 19, 22, 25/26, and 29/30.

CNC1(c2ccccc2Cl)CCCCC1=O (racemic) [intranasal racemic ketamine, 1:1 mixture of the two enantiomers of ketamine: (R)-2-(2-chlorophenyl)-2-(methylamino)cyclohexanone and (S)-2-(2-chlorophenyl)-2-(methylamino)cyclohexanone]
anesthetic activity [1]: anesthetic activity
sustained response on MADRS Item 10, time after the final administration ([2]; 90 mg IN+SOC): 15 days
MADRS item 10 (suicidality) score ([2]; 90 mg IN+SOC, Subject 1, range 0-6): 0 units
MADRS item 10 (suicidality) score ([2]; 90 mg IN+SOC, second subject (not given)): 0 units
subjects who experienced MADRS Item 10 response ([2]; 24 hours post-dose): 94.1%
MADRS Item 10 mean score ([2]; Day 1): 0.8
subjects who experienced MADRS Item 10 response ([2]; Day 16): 100%
MADRS Item 10 mean score ([2]; Day 29): 0.0
subjects who experienced MADRS Item 10 response ([2]; study end (Day 29/30)): 100%
MADRS Suicide Item-10 response rate ([2]; Day 1): 94%
MADRS Suicide Item-10 response rate ([2]; Day 16): 100%
MOAA/S score ([3]; 90 mg IN+SOC, Subject 1, 15 minutes post-administration, pre-dose 5 units): 4 units
MOAA/S score ([3]; 90 mg IN+SOC, Subject 1, 30 minutes): 5 units
MOAA/S score ([3]; 90 mg IN+SOC, Subject 2, throughout the trial): 5 units
sedation ([3]; 90 mg IN+SOC, Subjects 1 and 2, in contrast to intranasal (S)-ketamine): little to no sedation
subjects with MOAA/S score of 5 units at all time-points ([3]; Day 1): 5 of 7 subjects
MOAA/S score (no one had a score below) ([3]; Day 1, 7 subjects): ≥ 4 units
Diastolic BP ([4]; 1 hour post first dose): 80.9
Systolic BP ([4]; 1 hour post first dose): 125.8
Diastolic BP ([4]; 2 hours post first dose): 78.5
Systolic BP ([4]; 2 hours post first dose): 121.3

Source: patent US20240261236A1, “METHODS OF USING NMDA RECEPTOR ANTAGONISTS” (Seelos Therapeutics, Inc., priority 2021, published 2024)
